# Assay results as given in patent publication US12364689B2, “Dosage regimen for the treatment of cancer” (AstraZeneca AB, priority 2020, dated 2025).
# “Also recorded” adds a separate entry of the source.
# What was measured:
# [1] = tested on: women with ER+ HER2- advanced breast cancer; test: Phase 1 clinical trial: safety and tolerability (AEs, DLTs); format: in vivo
# Procedure: “Grade 4 or 5 adverse events” can be classified according to the common terminology criteria for adverse events (CTCAE).
# Dose Limiting Toxicity (DLT): a DLT is defined as an AE or abnormal laboratory value that occurs from the first dose of AZD9833 up to and including Day 28, Cycle 1 (the DLT period) that is assessed as unrelated to disease progression, intercurrent illness, or concomitant medications and that, despite optimal therapeutic intervention, meets any of the following criteria: • (a) Any death not clearly due to the underlying disease or extraneous causes • (b) Haematological toxicities as follows (CTCAE): • (i) Any >Grade 4 haematological toxicity present for more than 4 consecutive days, or requiring blood transfusions, G-CSF, or erythropoietins. • (ii)>Grade 3 neutropenia of any duration accompanied with fever ≥38.5° C. and/or systemic infection. • (iii)>Grade 3 thrombocytopenia of any duration with bleeding. • (iv) Grade 4 thrombocytopenia (regardless of duration or bleeding) • (c) Any non-haematological toxicity CTCAE >Grade 3 but with the following conditional stipulations: • (i) Nausea >CTCAE Grade 3 for more than 3 consecutive days despite administration of maximal anti-emetic therapy. • (ii) Vomiting >CTCAE Grade 3 for more than 3 consecutive days despite administration of maximal anti-emetic therapy. • (iii) Vomiting >CTCAE Grade 4 (regardless of duration) • (iv) Diarrhoea >CTCAE Grade 3 for more than 3 consecutive days despite administration of maximal anti-diarrheal therapy. • (v) Diarrhoea ≥ CTCAE Grade 4 (regardless of duration) • (vi) CTCAE Grade ≥3 fatigue that persists for more than 4 days. • (vii) CTCAE Grade ≥3 increase in creatinine. • (d) Other toxicity: • (i) QTcF value >500 ms or QTcF prolongation from baseline by 60 ms and >480 ms confirmed on at least 2 separate ECGs. • (ii)>CTCAE Grade 4 electrocardiogram QT corrected interval prolongation. • (iii) An increase in serum/plasma AST or ALT ≥3×ULN and concurrent TBL ≥2 ULN. • (e) Any other toxicity that: • (i) Is greater than at baseline and is clinically significant and/or unacceptable despite optimal therapeutic intervention, and is judged to be a DLT by the SRC, or • (ii) Results in a disruption of the dosing schedule of more than 14 days despite optimal therapeutic intervention.
# Safety and Clinical Assessments: The safety and tolerability of AZD9833 is the primary objective of this study. Related outcome measures are DLTs, AEs/SAEs, vital signs, clinical chemistry/haematology, and ECGs.
# Clinical Safety Laboratory Assessments: Clinical chemistry, haematology, and urinalysis and coagulation will be performed at a local laboratory at or near to the investigator study site. Sample tubes and sample sizes may vary depending on laboratory method used and routine practice at the study site.
# A clinical trial according to the above protocol was carried out using 60 patients.
# [2] = tested on: ER signalling pathway / Ki67; test: Phase 1 clinical trial: pharmacodynamic biomarkers in paired tumour biopsies; format: in vivo, human
# Text: Pharmacodynamics: Pharmacodynamic measurements will be made on a number of biomarkers (e.g., optional tumour biopsies, plasma ctDNA, CTC, and archival tumour tissue). Biological samples (archival tumour tissue, mandatory and optional biopsies where applicable) will be collected for the analysis of tumour DNA as an exploratory objective in this study. A 2-mL blood sample for DNA isolation will be collected prior to administration of the first dose of AZD9833 from subjects who have consented to participate in the genetic analysis component of this study. If for any reason the sample is not drawn prior to dosing, it may be taken at any visit until the last study visit. Only one sample for genetic research should be collected per subject during the study. Participation is optional.
# In Part A, paired tumour biopsy samples will be taken from at least 2 subjects at each dose level. In Part B, these biopsies will be taken from at least 5 post-menopausal subjects at each AZD9833 dose level, 300 mg, 150 mg and 75 mg and at least 5 from pre-menopausal subjects at 300 mg. If subjects are willing to participate in this part of the study, they will sign a biopsy-specific written informed consent. Paired tumour biopsies will be obtained from subjects with accessible tumours who have consented to biopsies. […]
structure (smiles),measurement,setting,value
"C[C@@H]1Cc2c(ccc3[nH]ncc23)[C@@H](c2ccc(NC3CN(CCCF)C3)cn2)N1CC(F)(F)F [AZD9833, N-(1-(3-fluoropropyl)azetidin-3-yl)-6-((6S,8R)-8-methyl-7-(2,2,2-trifluoroethyl)-6,7,8,9-tetrahydro-3H-pyrazolo[4,3-f]isoquinolin-6-yl) pyridin-3-amine]",DLT observed,[1]; 300 mg,G3 QTcF prolongation
same,DLT observed,[1]; 450 mg,"G3 vomiting; also recorded: a combination of G2 visual disturbance, G2 headache and G2 gait disturbance"
same,G4 or 5 AEs,"[1]; 60 patients, all doses",No G4 or 5 AEs were reported
same,"Treatment-related AE: asthenia, patients affected","[1]; 60 patients, all doses",10%
same,"Treatment-related AE: bradycardia/sinus bradycardia, patients affected","[1]; 60 patients, all doses",45%
same,"Treatment-related AE: dizziness, patients affected","[1]; 60 patients, all doses",10%
same,"Treatment-related AE: fatigue, patients affected","[1]; 60 patients, all doses",13%
same,"Treatment-related AE: nausea, patients affected","[1]; 60 patients, all doses",18%
same,"Treatment-related AE: visual disturbances, patients affected","[1]; 60 patients, all doses",53%
same,"Treatment-related AE: vomiting, patients affected","[1]; 60 patients, all doses",10%
same,clinical relevance of observed AEs,"[1]; 60 patients, all doses",None of the observed AEs were deemed to be clinically relevant
same,patients who experienced DLTs,"[1]; of 60 patients, all doses",Three
same,"asthenia, share G1","[1]; of affected patients, grade 1",67%
same,"bradycardia/sinus bradycardia, share G1","[1]; of affected patients, grade 1",93%
same,"dizziness, share G1","[1]; of affected patients, grade 1",83%
same,"fatigue, share G1","[1]; of affected patients, grade 1",38%
same,"nausea, share G1","[1]; of affected patients, grade 1",46%
same,"visual disturbances, share G1","[1]; of affected patients, grade 1",91%
same,"vomiting, share G1","[1]; of affected patients, grade 1",50%
same,"asthenia, share G2","[1]; of affected patients, grade 2",33%
same,"bradycardia/sinus bradycardia, share G2","[1]; of affected patients, grade 2",7%
same,"fatigue, share G2","[1]; of affected patients, grade 2",63%
same,"nausea, share G2","[1]; of affected patients, grade 2",55%
same,"visual disturbances, share G2","[1]; of affected patients, grade 2",6%
same,"vomiting, share G2","[1]; of affected patients, grade 2",33%
same,"dizziness, share G3","[1]; of affected patients, grade 3",17%
same,"visual disturbances, share G3","[1]; of affected patients, grade 3",3%
same,"vomiting, share G3","[1]; of affected patients, grade 3",17%
same,ER signalling pathway modulation,[2]; all dose cohorts,observed in all dose cohorts
same,reduction in Ki67,[2]; patients where clinical responses occurred and paired biopsies obtained,98%
